The assay deals with Recombinant Human Poly(ADP-Ribose) Polymerase (PARP), PARP-1 (Homo sapiens (Human), UniProt P09874). Particulars: read-out: PARP-1 (Ki); Table 1; text calls the values EC50s.

Molecules are shown by their SMILES.

Chain of Recombinant Human Poly(ADP-Ribose) Polymerase (PARP), PARP-1 (P09874 whole entry): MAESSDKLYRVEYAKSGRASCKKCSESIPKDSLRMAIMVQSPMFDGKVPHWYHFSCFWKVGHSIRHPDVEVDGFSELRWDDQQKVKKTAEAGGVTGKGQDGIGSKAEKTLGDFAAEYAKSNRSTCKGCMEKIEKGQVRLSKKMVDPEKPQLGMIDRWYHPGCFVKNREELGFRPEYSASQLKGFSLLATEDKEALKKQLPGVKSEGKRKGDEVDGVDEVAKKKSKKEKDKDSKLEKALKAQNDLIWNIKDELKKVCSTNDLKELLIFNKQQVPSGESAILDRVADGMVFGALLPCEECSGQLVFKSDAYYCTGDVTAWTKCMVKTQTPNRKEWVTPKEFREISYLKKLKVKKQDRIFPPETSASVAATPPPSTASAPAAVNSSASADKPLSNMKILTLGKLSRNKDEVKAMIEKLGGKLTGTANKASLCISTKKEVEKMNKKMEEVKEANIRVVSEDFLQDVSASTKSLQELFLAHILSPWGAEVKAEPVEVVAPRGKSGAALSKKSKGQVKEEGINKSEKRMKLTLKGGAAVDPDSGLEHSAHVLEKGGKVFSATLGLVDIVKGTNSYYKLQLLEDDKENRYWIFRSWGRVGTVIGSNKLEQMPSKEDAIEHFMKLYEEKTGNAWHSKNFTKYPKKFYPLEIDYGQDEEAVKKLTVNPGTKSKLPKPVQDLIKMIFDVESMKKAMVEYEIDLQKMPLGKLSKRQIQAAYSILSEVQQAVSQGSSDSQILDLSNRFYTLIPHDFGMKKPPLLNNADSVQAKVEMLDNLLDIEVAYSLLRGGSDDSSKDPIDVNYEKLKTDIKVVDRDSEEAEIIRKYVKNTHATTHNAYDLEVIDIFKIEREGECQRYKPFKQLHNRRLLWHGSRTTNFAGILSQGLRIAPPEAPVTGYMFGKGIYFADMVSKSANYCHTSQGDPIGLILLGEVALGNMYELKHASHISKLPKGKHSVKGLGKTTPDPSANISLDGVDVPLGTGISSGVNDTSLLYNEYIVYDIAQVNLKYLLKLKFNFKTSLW
Protocol: Nicotinamide[2,5′,8-3H]adenine dinucleotide and strepavidin SPA beads were purchased from Amersham Biosiences. […] NAD^+, histone, aminobenzamide, 3-amino benzamide and Calf Thymus DNA (dcDNA) were purchased from Sigma. Stem loop oligonucleotide containing MCAT sequence was obtained from Qiagen. The oligos were dissolved to 1 mM in annealing buffer containing 10 mM Tris HCl pH 7.5, 1 mM EDTA, and 50 mM NaCl, incubated for 5 minutes at 95° C., and annealed at 45° C. for 45 minutes. […] Biotinylated histone H1 was prepared by treating the protein with Sulfo-NHS-LC-Biotin from Pierce. The biotinylation reaction was conducted by slowly and intermittently adding 3 equivalents of 10 mM Sulfo-NHS-LC-Biotin to 100 μM Histone H1 in phosphate-buffered saline, pH 7.5, at 4° C. with gentle vortexing over 1 minute followed by subsequent 4° C. incubation for 1 hour. Streptavidin coated (FlashPlate Plus) microplates were purchased from Perkin Elmer.
PARP1 assay was conducted in PARP assay buffer containing 50 mM Tris pH 8.0, 1 mM DTT, 4 mM MgCl2. […] Auto reactions utilizing SPA bead-based detection were carried out in 100 μL volumes in white 96 well plates.

As for `Nc1cc(Cc2n[nH]c(=O)c3c2CCCC3)ccc1O` [Example 280, 4-(3-amino-4-hydroxybenzyl)-5,6,7,8-tetrahydrophthalazin-1(2H)-one], the Ki came to 0.303 µM.
On to `Cc1ccc(Cc2n[nH]c(=O)c3c2CCCC3)cc1N` [Example 281, 4-(3-amino-4-methylbenzyl)-5,6,7,8-tetrahydrophthalazin-1(2H)-one], for which the Ki was 0.309 µM.
The same measure for `CC(Cc1n[nH]c(=O)c2c1CCCC2)c1cccc(-c2cccc(C(=O)NCCN(C)C)c2)c1` (stereo not drawn) [Example 282, N-(2-(dimethylamino)ethyl)-3′-(1-methyl-2-(4-oxo-3,4,5,6,7,8-hexahydrophthalazin-1-yl)ethyl)-1,1′-biphenyl-3-carboxamide]: 1.71 µM.
In the case of `CC(Cc1n[nH]c(=O)c2c1CCCC2)c1cccc(-c2cccc(C(N)=O)c2)c1` (stereo not drawn) [Example 283, 3′-(1-methyl-2-(4-oxo-3,4,5,6,7,8-hexahydrophthalazin-1-yl)ethyl)-1,1′-biphenyl-3-carboxamide] it was 0.442 µM.
Consider `CC(=O)Nc1cccc(-c2cccc(C(C)Cc3n[nH]c(=O)c4c3CCCC4)c2)c1` (stereo not drawn) [Example 284, N-(3′-(1-methyl-2-(4-oxo-3,4,5,6,7,8-hexahydrophthalazin-1-yl)ethyl)-1,1′-biphenyl-3-yl)acetamide], for which the Ki came to 2.21 µM.
In the case of `CC(=O)Nc1cccc(-c2cccc(C(C)c3n[nH]c(=O)c4c3CCCC4)c2)c1` (stereo not drawn) [Example 286, N-(3′-(1-(4-oxo-3,4,5,6,7,8-hexahydrophthalazin-1-yl)ethyl)-1,1′-biphenyl-3-yl)acetamide] it was 0.058 µM.
In the case of `CC(c1cccc(-c2cccc(C(=O)NCCN(C)C)c2)c1)c1n[nH]c(=O)c2c1CCCC2` (stereo not drawn) [Example 287, N-(2-(dimethylamino)ethyl)-3′-(1-(4-oxo-3,4,5,6,7,8-hexahydrophthalazin-1-yl)ethyl)-1,1′-biphenyl-3-carboxamide] it was 0.771 µM; in that of `CC(Cc1n[nH]c(=O)c2c1CCCC2)c1cccc(C(=O)O)c1` (stereo not drawn) [Example 288, 3-(1-methyl-2-(4-oxo-3,4,5,6,7,8-hexahydrophthalazin-1-yl)ethyl)benzoic acid], 0.431 µM.
For `COc1ccc(C(=O)CCC(=O)Nc2cc(Cc3n[nH]c(=O)c4c3CCCC4)ccc2F)cc1` [Example 289, N-(2-fluoro-5-((4-oxo-3,4,5,6,7,8-hexahydrophthalazin-1-yl)methyl)phenyl)-4-(4-methoxyphenyl)-4-oxobutanamide], the Ki worked out at 0.0007 µM.
As for `CC1=C(C)C(=O)N(c2cc(Cc3n[nH]c(=O)c4c3CCCC4)ccc2F)C1=O` [Example 290, 1-(2-fluoro-5-((4-oxo-3,4,5,6,7,8-hexahydrophthalazin-1-yl)methyl)phenyl)-3,4-dimethyl-1H-pyrrole-2,5-dione], the Ki was found to be 0.001 µM.
The same measure for `O=C1C2CC2C(=O)N1c1cc(Cc2n[nH]c(=O)c3c2CCCC3)ccc1F` (stereo not drawn) [Example 291, 3-(2-fluoro-5-((4-oxo-3,4,5,6,7,8-hexahydrophthalazin-1-yl)methyl)phenyl)-3-azabicyclo(3.1.0)hexane-2,4-dione]: 0.0007 µM.
Take `O=C(COc1ccccc1)N1CCNC(Cc2n[nH]c(=O)c3c2CCCC3)C1` (stereo not drawn) [Example 292, 4-((4-(phenoxyacetyl)piperazin-2-yl)methyl)-5,6,7,8-tetrahydrophthalazin-1(2H)-one]: the Ki was found to be 0.116 µM.
In the case of `O=C(CCC(=O)c1ccccc1)Nc1cccc(CCc2n[nH]c(=O)c3c2CCCC3)c1` [Example 294, 4-oxo-N-(3-(2-(4-oxo-3,4,5,6,7,8-hexahydrophthalazin-1-yl)ethyl)phenyl)-4-phenylbutanamide] it was 0.204 µM; in that of `CC(Cc1n[nH]c(=O)c2c1CCCC2)c1ccc(F)c(-c2cccc(C(N)=O)c2)c1` (stereo not drawn) [Example 295, 2′-fluoro-5′-(1-methyl-2-(4-oxo-3,4,5,6,7,8-hexahydrophthalazin-1-yl)ethyl)-1,1′-biphenyl-3-carboxamide], 0.912 µM; in that of `CC(=O)Nc1cccc(-c2cc(C(C)Cc3n[nH]c(=O)c4c3CCCC4)ccc2F)c1` (stereo not drawn) [Example 296, N-(2′-fluoro-5′-(1-methyl-2-(4-oxo-3,4,5,6,7,8-hexahydrophthalazin-1-yl)ethyl)-1,1′-biphenyl-3-yl)acetamide], 0.683 µM.
Consider `CC(Cc1n[nH]c(=O)c2c1CCCC2)c1ccc(F)c(-c2cccc(CNS(C)(=O)=O)c2)c1` (stereo not drawn) [Example 297], for which the Ki came to 1.44 µM.
In the case of `O=C1C2CCCCC2C(=O)N1c1cc(Cc2n[nH]c(=O)c3c2CCCC3)ccc1F` (stereo not drawn) [Example 298, 2-(2-fluoro-5-((4-oxo-3,4,5,6,7,8-hexahydrophthalazin-1-yl)methyl)phenyl)hexahydro-1H-isoindole-1,3(2H)-dione] it was 0.002 µM; in that of `CC1(C)CC(=O)N(c2cc(Cc3n[nH]c(=O)c4c3CCCC4)ccc2F)C1=O` [Example 299, 1-(2-fluoro-5-((4-oxo-3,4,5,6,7,8-hexahydrophthalazin-1-yl)methyl)phenyl)-3,3-dimethylpyrrolidine-2,5-dione], 0.004 µM.
The same measure for `O=C1CCCC(=O)N1c1cc(Cc2n[nH]c(=O)c3c2CCCC3)ccc1F` [Example 303, 1-(2-fluoro-5-((4-oxo-3,4,5,6,7,8-hexahydrophthalazin-1-yl)methyl)phenyl)piperidine-2,6-dione]: 0.0008 µM.
The same measure for `O=c1[nH]nc(Cc2ccc(F)c(N3CCCS3(=O)=O)c2)c2c1CCCC2` [Example 305, 4-(3-(1,1-dioxidoisothiazolidin-2-yl)-4-fluorobenzyl)-5,6,7,8-tetrahydrophthalazin-1(2H)-one]: 0.003 µM; for `O=C(NCc1cccs1)c1cccc(Cc2n[nH]c(=O)c3c2CCCC3)c1` [Example 309, 3-((4-oxo-3,4,5,6,7,8-hexahydrophthalazin-1-yl)methyl)-N-(thien-2-ylmethyl)benzamide]: 0.029 µM; for `O=C(NCc1ccsc1)c1cccc(Cc2n[nH]c(=O)c3c2CCCC3)c1` [Example 310, 3-((4-oxo-3,4,5,6,7,8-hexahydrophthalazin-1-yl)methyl)-N-(thien-3-ylmethyl)benzamide]: 0.026 µM.
For the molecule `O=C(NCc1cccnc1)c1cccc(Cc2n[nH]c(=O)c3c2CCCC3)c1` [Example 311, 3-((4-oxo-3,4,5,6,7,8-hexahydrophthalazin-1-yl)methyl)-N-(pyridin-3-ylmethyl)benzamide], the Ki is 0.058 µM.
For the molecule `O=C(NCc1ccncc1)c1cccc(Cc2n[nH]c(=O)c3c2CCCC3)c1` [Example 312, 3-((4-oxo-3,4,5,6,7,8-hexahydrophthalazin-1-yl)methyl)-N-(pyridin-4-ylmethyl)benzamide], the Ki came to 0.131 µM.
The same measure for `CN(C)CCNC(=O)c1cccc(Cc2n[nH]c(=O)c3c2CCCC3)c1` [Example 313, N-(2-(dimethylamino)ethyl)-3-((4-oxo-3,4,5,6,7,8-hexahydrophthalazin-1-yl)methyl)benzamide]: 0.095 µM.
The same measure for `CN(C)CCCNC(=O)c1cccc(Cc2n[nH]c(=O)c3c2CCCC3)c1` [Example 314, N-(3-(dimethylamino)propyl)-3-((4-oxo-3,4,5,6,7,8-hexahydrophthalazin-1-yl)methyl)benzamide]: 0.032 µM.
The same measure for `O=C(NCCCN1CCCC1)c1cccc(Cc2n[nH]c(=O)c3c2CCCC3)c1` [Example 315, 3-((4-oxo-3,4,5,6,7,8-hexahydrophthalazin-1-yl)methyl)-N-(3-pyrrolidin-1-ylpropyl)benzamide]: 0.023 µM.

These data come from patent US9283222B2 (priority 2006, dated 2016).
